# According to patent US12458024B2, “Compound combination with superior herbicidal activity” (priority 2020, dated 2025):
# Key:
# Assay type in all cases: in vivo
# [1] = tested on: Polygonum convolvulus; test: Field trial herbicidal action, indaziflam + pelargonic acid, Polygonum convolvulus
# Protocol: (§1) The following active compounds were tested: • Product PeAc contained 249.96 g a.i./L of pelargonic acid in an EC formulation • Product IAF contained 200 g a.i./L of indaziflam formulated as SC formulation • Product TBA contained 500 g a.i./L of terbutylazine formulated as SC formulation 2. Biological Trials Herbicidal Action (Field Trials)
# (§2) The growth stages of the different weed or crop plant species are indicated according to the BBCH monograph “Growth stages of mono- and dicotyledonous plants”, 2nd edition, 2001, ed. Uwe Meier, Federal Biological Research Centre for Agriculture and Forestry (Biologische Bundesanstalt für Land und Forstwirtschaft). The respective BBCH stages are mentioned in brackets for the different weed or crop plant species and indicate the BBCH stage for the majority of the respective weed or crop plant species.
# (§3) The dose rates of herbicidal ingredients used in each case are indicated for the respective active ingredient in brackets and refer to the amount of active ingredient per hectare (g a.i./ha).
# (§4) • A is the efficacy in % when active compound A is applied at an application rate of a g a.i./ha, • B is the efficacy in % when active compound B is applied at an application rate of b g a.i./ha), • EC is the efficacy in % when the active compounds A and B are applied at application rates of a+b g a.i./ha), respectively, and Then EC=A+B−([…]/100)
# [2] = tested on: Chenopodium album; test: Field trial herbicidal action, indaziflam + pelargonic acid, Chenopodium album
# Protocol: as §1, §2, §3, §4
# [3] = tested on: Abutilon theophrasti; test: Field trial herbicidal action, indaziflam + pelargonic acid, Abutilon theophrasti
# Protocol: as §1, §2, §3, §4
# [4] = tested on: Setaria viridis; test: Field trial herbicidal action, indaziflam + pelargonic acid, Setaria viridis
# Protocol: as §1, §2, §3, §4
# [5] = tested on: Echinocloa crus-galli; test: Field trial herbicidal action, indaziflam + pelargonic acid, Echinocloa crus-galli
# Protocol: as §1, §2, §3, §4
# [6] = tested on: Panicum maximum; test: Field trial herbicidal action, indaziflam + pelargonic acid, Panicum maximum
# Protocol: as §1, §2, §3, §4
# [7] = tested on: Zea mays; test: Field trial herbicidal action, indaziflam + pelargonic acid, Zea mays
# Protocol: as §1, §2, §3, §4
# [8] = tested on: Abuthilon theophrasti; test: Field trial herbicidal action, terbuthylazine + pelargonic acid, Abuthilon theophrasti
# Protocol: as §1, §2, §3, §4
# [9] = tested on: Amaranthus retroflexus; test: Field trial herbicidal action, terbuthylazine + pelargonic acid, Amaranthus retroflexus
# Protocol: as §1, §2, §3, §4
# [10] = tested on: Chenopodium album; test: Field trial herbicidal action, terbuthylazine + pelargonic acid, Chenopodium album
# Protocol: as §1, §2, §3, §4
# [11] = tested on: Echinocloa crus-galli; test: Field trial herbicidal action, terbuthylazine + pelargonic acid, Echinocloa crus-galli
# Protocol: as §1, §2, §3, §4
smiles,measurement,setting,value
"Cc1ccc2c(c1)C(Nc1nc(N)nc(C(C)F)n1)C(C)C2 (mixture of isomers) [Indaziflam, N2-[(1R,2S)-2,3-dihydro-2,6-dimethyl-1H-inden-1-yl]-6-[(1RS)-1-fluoroethyl]-1,3,5-triazine-2,4-diamine]",Herbicidal Activity 13 DAT [%] (EA),[1]; 50 g a.i./ha,55%
same,Herbicidal Activity 13 DAT [%] (EA),[2]; 50 g a.i./ha,20%
same,Herbicidal Activity 13 DAT [%] (EA),[3]; 10 g a.i./ha,60%
same,Herbicidal Activity 13 DAT [%] (EA),[3]; 50 g a.i./ha,92%
same,Herbicidal Activity 13 DAT [%] (EA),[4]; 50 g a.i./ha,0%
same,Herbicidal Activity 13 DAT [%] (EA),[5]; 50 g a.i./ha,0%
same,Herbicidal Activity 13 DAT [%] (EA),[6]; 50 g a.i./ha,5%
same,Herbicidal Activity 13 DAT [%] (EA),[7]; 50 g a.i./ha,10%
"CCCCCCCCC(=O)O [Pelargonic acid, nonanoic acid]",Herbicidal Activity 13 DAT [%] (EA),[1]; 6000 g a.i./ha,40%
same,Herbicidal Activity 13 DAT [%] (EA),[2]; 6000 g a.i./ha,40%
same,Herbicidal Activity 13 DAT [%] (EA),[2]; 16000 g a.i./ha,80%
same,Herbicidal Activity 13 DAT [%] (EA),[3]; 6000 g a.i./ha,45%
same,Herbicidal Activity 13 DAT [%] (EA),[3]; 16000 g a.i./ha,88%
same,Herbicidal Activity 13 DAT [%] (EA),[4]; 6000 g a.i./ha,10%
same,Herbicidal Activity 13 DAT [%] (EA),[4]; 16000 g a.i./ha,45%
same,Herbicidal Activity 13 DAT [%] (EA),[5]; 6000 g a.i./ha,0%
same,Herbicidal Activity 13 DAT [%] (EA),[5]; 16000 g a.i./ha,25%
same,Herbicidal Activity 13 DAT [%] (EA),[6]; 6000 g a.i./ha,20%
same,Herbicidal Activity 13 DAT [%] (EA),[6]; 16000 g a.i./ha,50%
same,Herbicidal Activity 13 DAT [%] (EA),[7]; 6000 g a.i./ha,38%
same,Herbicidal Activity 13 DAT [%] (EA),[7]; 16000 g a.i./ha,65%
same,Herbicidal Activity 14 DAT [%] (EA),[8]; 6000 g a.i./ha,30%
same,Herbicidal Activity 14 DAT [%] (EA),[8]; 12000 g a.i./ha,57%
same,Herbicidal Activity 14 DAT [%] (EA),[8]; 16000 g a.i./ha,57%
same,Herbicidal Activity 14 DAT [%] (EA),[9]; 6000 g a.i./ha,13%
same,Herbicidal Activity 14 DAT [%] (EA),[9]; 12000 g a.i./ha,90%
same,Herbicidal Activity 14 DAT [%] (EA),[9]; 16000 g a.i./ha,93%
same,Herbicidal Activity 14 DAT [%] (EA),[10]; 6000 g a.i./ha,20%
same,Herbicidal Activity 14 DAT [%] (EA),[10]; 12000 g a.i./ha,88%
same,Herbicidal Activity 14 DAT [%] (EA),[10]; 16000 g a.i./ha,97%
same,Herbicidal Activity 14 DAT [%] (EA),[11]; 6000 g a.i./ha,13%
same,Herbicidal Activity 14 DAT [%] (EA),[11]; 12000 g a.i./ha,30%
same,Herbicidal Activity 14 DAT [%] (EA),[11]; 16000 g a.i./ha,33%
"CCNc1nc(Cl)nc(NC(C)(C)C)n1 [Terbuthylazin, terbuthylazine]",Herbicidal Activity 14 DAT [%] (EA),[8]; 125 g a.i./ha,0%
same,Herbicidal Activity 14 DAT [%] (EA),[8]; 250 g a.i./ha,7%
same,Herbicidal Activity 14 DAT [%] (EA),[8]; 500 g a.i./ha,7%
same,Herbicidal Activity 14 DAT [%] (EA),[8]; 750 g a.i./ha,20%
same,Herbicidal Activity 14 DAT [%] (EA),[9]; 125 g a.i./ha,0%
same,Herbicidal Activity 14 DAT [%] (EA),[9]; 250 g a.i./ha,7%
same,Herbicidal Activity 14 DAT [%] (EA),[9]; 500 g a.i./ha,47%
same,Herbicidal Activity 14 DAT [%] (EA),[9]; 750 g a.i./ha,63%
same,Herbicidal Activity 14 DAT [%] (EA),[10]; 125 g a.i./ha,0%
same,Herbicidal Activity 14 DAT [%] (EA),[10]; 250 g a.i./ha,13%
same,Herbicidal Activity 14 DAT [%] (EA),[10]; 500 g a.i./ha,67%
same,Herbicidal Activity 14 DAT [%] (EA),[10]; 750 g a.i./ha,78%
same,Herbicidal Activity 14 DAT [%] (EA),[11]; 125 g a.i./ha,0%
same,Herbicidal Activity 14 DAT [%] (EA),[11]; 250 g a.i./ha,0%
same,Herbicidal Activity 14 DAT [%] (EA),[11]; 500 g a.i./ha,0%
same,Herbicidal Activity 14 DAT [%] (EA),[11]; 750 g a.i./ha,0%
